Entries after “also recorded” stand apart in the source; their conditions may differ.
Experiments:
[1] = test system: ROCK; conditions: cited from earlier work
[2] = test system: ROCK1/P-MLC; assay: Immunolocalization of ROCK1 and P-MLC on RPE cell flatmounts; assay type: in vivo, rat; conditions: GK diabetic rats, 3 intravitreous injections of 20 μM
Description: (§3) For intravitreous injections, diabetic rats were anesthetized with an intraperitoneal injection of pentobarbital (40 mg/kg Nembutal, Abbot, Saint-Remy sur Avre, France) and pupils were dilated with a topically applied drop of 5% tropicamide (Ciba Vision, Toulouse, France), and locally anesthetized with a drop of 1% tetracaine (Ciba Vision). Three consecutive injections, of Fasudil at a concentration of 20 M or vehicle were performed, at 48 hours interval under a surgical microscope, using a 30-gauge needle (Microfine: Becton Dickinson, Meylan, France as described previously [29-31]). Animals were sacrificed 48 hours following the administration of 3 intra-vitreous injections of 20 μM of Fasudil, each injection was 2 days apart.
For flatmounts, after enucleation, ocular globes were fixed in 4% paraformaldehyde (PFA) for 15 min at room temperature and sectioned at the limbus; anterior segments were discarded. Neural retinas and RPE/choroids were fixed separately for additional 15 min in acetone at −20° C. Specimens were then incubated overnight at 4° C. with primary antibodies diluted in PBS supplemented with 10% foetal calf serum (FCS) and 0.1% Triton X-100. Immunohistochemistry was repeated at least 7 times on 7 different animals for each group.

[3] = test system: ROCK; assay: ROCK Activity Immunoblot Kit: phosphorylation of recombinant MYPT1 by RPE/choroid samples of treated GK rats; assay type: in vivo, rat; conditions: GK diabetic rats, 3 intravitreous injections of 20 μM, vs vehicle
Description: We used a ROCK Activity Immunoblot Kit (Cell Biolabs, San Diego, CA, USA) that utilizes recombinant MYPT1 as a ROCK substrate. ROCK inactivates myosin phosphatase through a specific phosphorylation of myosin phosphatase target subunit 1 (MYPT1) at Thr696, which results in an increase in the phosphorylated content of the 20-kDa myosin light chain. (MLC20) After incubating the substrate (recombinant MYPT1) with RPE/choroid samples, the phosphorylated MYPT1 was detected by western blot analysis using an anti-phospho-MYPT1 (Thr696). In brief, RPE/choroid protein samples were diluted in 1× Kinase buffer. 25 μL (75 μg of proteins) was added in microcentrifuge tubes and the initiation of kinase reaction was performed by adding 50 μL of 1× Kinase/ATP/Substrate Solution. The microcentrifuge tubes were then incubated at 30° C. for 30-60 minutes with gentle agitation. Then the kinase reaction was stopped by adding 25 μL of 4× reducing SDS-PAGE sample buffer. […] Inhibition of ROCK activity was evaluated by western blotting and quantified.

[4] = test system: ROCK-1; assay: Western blotting of ROCK1 protein level in RPE; assay type: in vivo, rat; conditions: GK diabetic rats, 3 intravitreous injections of 20 μM, vs vehicle injected eyes, n=6
Description: as §3
RPE/choroid and neural retina were homogenized in a lysis buffer (50 mM Mops, 50 mM Trisbase, 0.1%, SDS 1 mM EDTA PH 7.7) containing a protease inhibitor cocktail (Roche, France). Protein concentration was determined using a (Pierce BCA protein assay kit Thermo Scientific Rockford USA) (20-40 μg) were subjected to SDS-PAGE on Nupage 4-12% Bis-Tris gel electrophoresis, and electroblotted onto nitrocellulose membranes (Optitran BA-S 83 GE Healthcare Life Science Whatman). Membranes were incubated with primary antibodies.

[5] = test system: VEGF; assay: VEGF western blot in neural retina and VEGF immunostaining on retinal flatmounts; assay type: in vivo, rat; conditions: GK rats, Fasudil vs vehicle, n=8/group, western blot (VEGF-164, neural retina)
Description: (§1) For intravitreous injections, diabetic rats were anesthetized with an intraperitoneal injection of pentobarbital (40 mg/kg Nembutal, Abbot, Saint-Remy sur Avre, France) and pupils were dilated with a topically applied drop of 5% tropicamide (Ciba Vision, Toulouse, France), and locally anesthetized with a drop of 1% tetracaine (Ciba Vision). Three consecutive injections, of Fasudil at a concentration of 20 µM or vehicle were performed, at 48 hours interval under a surgical microscope, using a 30-gauge needle (Microfine: Becton Dickinson, Meylan, France as described previously). […] Protein concentration was determined using a (Pierce BCA protein assay kit Thermo Scientific Rockford USA) (20-40 μg) were subjected to SDS-PAGE on Nupage 4-12% Bis-Tris gel electrophoresis, and electroblotted onto nitrocellulose membranes (Optitran BA-S 83 GE Healthcare Life Science Whatman). […] Then, membranes were incubated with the corresponding peroxidase-conjugated F(ab)2 fragment (Santa cruz Biotechnology Inc, Santa Cruz, CA, USA (dilution 1:5000) secondary antibodies. Immunoreactive bands were detected with the ECL Western blotting Detection Reagents Kit (Thermo Scientific Rockford USA). The relative abundance of individual proteins identified was quantified by scanning densitometry. The list of antibodies used for western-blots are provided in Table 2.

[6] = test system: retinal capillary network; assay: Quantitative assessment of the retinal microangiopathy: lectin-labelled capillary surface on flat-mounted retina; assay type: in vivo, rat; conditions: GK rats, n=4 Fasudil and n=5 vehicle, p<0.05
Description: For intravitreous injections, diabetic rats were anesthetized with an intraperitoneal injection of pentobarbital (40 mg/kg Nembutal, Abbot, Saint-Remy sur Avre, France) and pupils were dilated with a topically applied drop of 5% tropicamide (Ciba Vision, Toulouse, France), and locally anesthetized with a drop of 1% tetracaine (Ciba Vision). Three consecutive injections, of Fasudil at a concentration of 20 µM or vehicle were performed, at 48 hours interval under a surgical microscope, using a 30-gauge needle (Microfine: Becton Dickinson, Meylan, France as described previously). Animals were sacrificed 48 hours following the administration of 3 intra-vitreous injections of 20 μM of Fasudil, each injection was 2 days apart. To quantify the area of large and small blood vessels on flat mounted retina, an ImageJ macro was created in Fiji. Briefly, the local thickness function available with the Fiji plugin for ImageJ software was used to create a map of the blood vessels, from which diameter of the local structures could be evaluated. This map was thresholded to define two binary masks corresponding to the vessels of large diameter (local thickness>threshold) and the vessels of small diameter (local thickness<threshold). The area of those masks was then measured and expressed in terms of the surface area occupied by the small vessels.

[7] = test system: retinal vessels; assay: In vivo imaging of retinal vessels using confocal angiography; set-up: species or system rat; conditions: GK rats, intravitreal fasudil, p<0.05
Description: (§2) For intravitreous injections, diabetic rats were anesthetized with an intraperitoneal injection of pentobarbital (40 mg/kg Nembutal, Abbot, Saint-Remy sur Avre, France) and pupils were dilated with a topically applied drop of 5% tropicamide (Ciba Vision, Toulouse, France), and locally anesthetized with a drop of 1% tetracaine (Ciba Vision). Three consecutive injections, of Fasudil at a concentration of 20 µM or vehicle were performed, at 48 hours interval under a surgical microscope, using a 30-gauge needle (Microfine: Becton Dickinson, Meylan, France as described previously). Animals were sacrificed 48 hours following the administration of 3 intra-vitreous injections of 20 μM of Fasudil, each injection was 2 days apart.

[8] = test system: outer retinal barrier (RPE); assay: Blood-retinal barrier breakdown using intravenous injection of 150 KDa FITC-dextran; assay type: in vivo, rat
Description: as §2, with “apart. To assess blood retinal barrier breakdown, 200 μl of 150 KDa FITC-dextran at 50 mg/ml in PBS (Sigma) was injected intravenously in the tail of rats treated by Fasudil or vehicle (n=5), 2 hours prior killing. Leakage of FITC-dextran was evaluated by measuring fluorescence within the retina using imageJ software as previously described by others. Cryosections (10 μm) of Fasudil and vehicles injected rats retina were randomly imaged (10 images at 40× magnification per animal) and analysed.” for “apart.”

[9] = test system: p-MLC; assay: Western blotting of p-MLC protein level in RPE; assay type: in vivo, rat; conditions: GK diabetic rats, 3 intravitreous injections of 20 μM, vs vehicle
Description: as §1

[10] = test system: RPE cells; assay: Quantitative analysis of RPE cell layer morphology on RPE flat-mounts; assay type: in vivo, rat; conditions: Fasudil vs vehicle
Description: For intravitreous injections, diabetic rats were anesthetized with an intraperitoneal injection of pentobarbital (40 mg/kg Nembutal, Abbot, Saint-Remy sur Avre, France) and pupils were dilated with a topically applied drop of 5% tropicamide (Ciba Vision, Toulouse, France), and locally anesthetized with a drop of 1% tetracaine (Ciba Vision). Three consecutive injections, of Fasudil at a concentration of 20 µM or vehicle were performed, at 48 hours interval under a surgical microscope, using a 30-gauge needle (Microfine: Becton Dickinson, Meylan, France as described previously). Animals were sacrificed 48 hours following the administration of 3 intra-vitreous injections of 20 μM of Fasudil, each injection was 2 days apart. To analyse RPE flat-mounts and in order to assess the cell morphology. an ImageJ [32] macro tool was created in Fiji. Briefly, after a first image processing by FFT band pass filtering, images were converted into binary format and masked and then processed to obtain a skeleton image (isolated segments and loops were removed). This image was inverted and the cells segmented and labelled with the “particle analysis” tool in ImageJ, the Regions of Interest (ROI) were delimited using ROI Manager tool. The number of vertices for each cell was measured following detection of triple points (points were three branches are joined together) with the appropriate binary “hit or miss” transformation. For this transformation, the ImageJ plugin “morphology” was used. By removing those points from the skeleton image, the number of individual edges was counted as well as their length. The number of vertices was then verified and manually corrected for errors. Images with more than 5% automatic alignment errors were eliminated from analysis. Following this several morphological parameters were then measured for each cell e.g. area, perimeter, circularity, number of neighbours/vertices/edges of a cell etc. […]

| SMILES | affinity to ROCK relative to Fasudil [1] | localization of ROCK1/P-MLC in RPE cells [2] | phosphorylated MYTP1 in the RPE (ROCK-1 activity) [3] | total ROCK-1 in the RPE [4] | VEGF levels in retina [5] | capillary density (% of surface coverage by small vessels) [6] | vasodilation of retinal vessels (vascular diameter before and after treatment) [7] | RPE barrier on histological sections ([8]; GK eyes, Fasudil treated) | vessel leakage (neural retina corrected total fluorescence) ([8]; GK eyes, Fasudil vs vehicle, n=5-6, p<0.01) | passage of 150 KDa FITC-dextran across the RPE barrier ([8]; GK rats, 2 hours after intravenous FITC-dextran, qualitative on cryosections) | phosphorylated MLC in the RPE [9] | frequency of normal size RPE cells ([10]; GK retina, p<0.001) | frequency of small RPE cells (<200 μm2) ([10]; GK retina, p<0.001) | distribution of RPE cell area ([10]; WS (non-diabetic Wistar) retina, ANOVA p=0.17) |
| --- | --- | --- | --- | --- | --- | --- | --- | --- | --- | --- | --- | --- | --- | --- |
| O=c1[nH]ccc2c(S(=O)(=O)N3CCCNCC3)cccc12 [Hydroxyfasudil] | higher affinity |  |  |  |  |  |  |  |  |  |  |  |  |  |
| O=S(=O)(c1cccc2cnccc12)N1CCCNCC1 [Fasudil, hexahydro-1-(5-isoquinolylsulfonyl)-1H-1,4-di-azepime] |  | relocation of ROCK1/P-MLC from the membrane into the cytoplasm | significant reduction | not significantly decreased | significant decrease | significantly increased | significant effect of fasudil on retinal vessel diameter; also recorded: significant vasodilation | intact RPE barrier | significant reduction in vessel leakage | did not cross the RPE barrier | significant reduction | increase frequency of normal size cells | significantly less small cells; also recorded: reduction in the frequency of small cells | no difference in distribution of cell area |

Source: patent publication US12048761B2, “Methods and pharmaceutical compositions for the treatment of retinal capillary non-perfusion” (INSERM (INSTITUT NATIONAL DE LA SANTÉ ET DE LA RECHERCHE …, priority 2015, dated 2024)
